# Entries after “also recorded” stand apart in the source; their conditions may differ.
# How the values were obtained:
# Format in all cases: cell-based, mouse
# [1] = tested on: Hh target genes and growth markers in GCPs; test: qRT-PCR of Hh and proliferation targets in SAG-treated GCPs; details: SAG + compound at 5 and 10 μM, 48 h
# Source text: Hh signaling is a critical regulator of cerebellum development controlling the proliferation of granule cell progenitors (GCPs) under Purkinje cell-derived Shh stimuli. Withdrawal of Hh signal, occurring physiologically after the first post-natal week in mice,[54] causes cell growth arrest and induces their differentiation into mature granules.[55] Importantly, genetic and epigenetic alterations in the Hh pathway are responsible for the lack of GCPs proliferation arrest, leading to the tumorigenic conversion of these progenitors, considered as the cell of origin of MB.[56], [57] To investigate the biological effects of 12, we first tested its ability to suppress Hh-dependent growth in 4-day-old mouse cerebellar progenitors.
# Figure 4 Compound 12 inhibition of Hh-dependent growth of cerebellum granule cell progenitors. (a and b) BrdU assay in cerebellar granule cell progenitors (GCPs). GCPs isolated from 4-day-old mice were treated with SAG alone or in combination with compound 12 at 5 and 10 μM concentrations for 48 h. (a) Inhibition of cell proliferation was measured as percentage of BrdU incorporation in comparison with SAG-treated sample. […] (c) qRT-PCR analysis show Hh and proliferation targets mRNA expression levels determined in GCPs culture derived from 4-day-old mouse cerebella treated with SAG alone or in combination with compound 12 at 5 and 10 μM concentrations for 48 h. […]
# AP1/Jun pathway = test: AP1/Jun luciferase reporter assay (MMP1-luciferase reporter and c-Jun) in MEFs WT; details: increasing concentrations, 24 h
# Description: Figure 2 Compound 12 inhibits Hh signaling without affecting AP1/Jun and WNT/β-Catenin pathways. (a) The graphs show the Hh target genes expression levels in Ptch1^−/− MEFs treated for 48 h with 12 or DMSO as control. mRNA levels were determined by quantitative real-time PCR (qRT-PCR) normalized to endogenous control (β2-microglobulin and HPRT). Pfkfb3 gene was used as negative control. *P<0.05 versus CTR. (b and c) AP1/Jun and WNT/β-Catenin pathways activity were assayed in MEFs WT transfected with MMP1-luciferase reporter and c-Jun (b) or Top Flash-luciferase reporter and β-Catenin (c), respectively, in the presence or absence of increasing concentrations of compound 12. Treatment time was 24 h, and normalization was against Renilla luciferase.
# ASZ001 BCC cells = test: Trypan blue growth count of ASZ001 BCC cells; details: compared with Cyclopamine, Vismodegib and LDE-225
# Description: (§1) After the indicated times, a trypan blue count was performed to determine the growth rate.
# Cell proliferation was evaluated by BrdU detection (Roche, Welwyn Garden City, UK). Briefly, after the BrdU pulse (24 h for GCPs) cells were fixed with 4% paraformaldehyde and permeabilized with 0.2% Triton X-100, and BrdU detection was performed according to the manufacturer's instructions. Nuclei were counterstained with Hoechst reagent. At least 500 nuclei were counted in triplicate, and the number of BrdU-positive nuclei was recorded. To determine the growth rate of viable cells, a trypan blue count was performed after a treatment period of 24–48–72 h with studied compound.
# Gli1 mRNA [2] = test: Gli1 mRNA (qRT-PCR) in primary MB cells from Ptch1+/− mice; details: ex vivo cultures from Ptch1^+/− mice MBs
# Description: (§2) Total RNA was isolated with Trizol (Invitrogen/Life Technologies, Carlsbad, CA, USA) and reverse transcribed with SensiFAST cDNA Synthesis Kit (Bioline Reagents Limited, London, UK). Quantitative real-time PCR (Q-PCR) analysis of Gli1, Gli2, Ptch1, Bmp2, Pfkfb3, CycD1, CycD2, Pcna, Oct4, Nanog, β-2 microglobulin, β-actin and HPRT mRNA expression was performed on each cDNA sample using the VIIA7 Real Time PCR System employing Assay-on-Demand Reagents (Life Technologies).
# [3] = tested on: Hh target genes in SuFu^−/− MEFs; test: qRT-PCR of endogenous Hh target genes in SuFu−/− MEFs; details: 48 h
# Description: as §2
# [4] = tested on: Hh pathway readouts, stemness markers and growth genes in MB stem-like cells; test: qRT-PCR of Hh, proliferation and stemness targets in MB stem-like cells; details: 48 h
# Description: Figure 5 Compound 12 inhibition of Hh-dependent MB tumor cell growth. […] (a and b) After the indicated times, a trypan blue count was performed to determine the growth rate of viable cells. (c) Gli1 mRNA expression levels were determined by qRT-PCR normalized to endogenous control (β2-microglobulin and HPRT). (d–f) Compound 12 inhibits MB-SCs self-renewal. (d) Suspension of single MB-SCs isolated from Ptch1^+/− mice were cultured in stem cell medium to allow the formation of primary neurospheres. Primary neurospheres were dissociated and treated with increasing concentrations of compound 12, Cyclopamine or DMSO only. After 7 days of treatment, the number of secondary neurospheres derived from a known number of single cells was counted. The self-renewal MB-SCs' capability is expressed as percentage of neurosphere-forming cells. […]
# Total RNA was isolated with Trizol (Invitrogen/Life Technologies, Carlsbad, CA, USA) and reverse transcribed with SensiFAST cDNA Synthesis Kit (Bioline Reagents Limited, London, UK). Quantitative real-time PCR (Q-PCR) analysis of Gli1, Gli2, Ptch1, Bmp2, Pfkfb3, CycD1, CycD2, Pcna, Oct4, Nanog, β-2 microglobulin, β-actin and HPRT mRNA expression was performed on each cDNA sample using the VIIA7 Real Time PCR System employing Assay-on-Demand Reagents (Life Technologies). […]
# Gli1 mRNA [5] = test: Gli1 mRNA (qRT-PCR) in ASZ001 BCC cells; details: after drug treatment
# Description: as §1, §2
structure (smiles),measurement,setting,value
"COc1ccc(C=CC(=O)c2cc(OC)c(OC)cc2OC)cc1OC [Compound 12, 3-(3,4-dimethoxy-phenyl)-1-(2,4,5-trimethoxy-phenyl)-2-propen-1-one]","mRNA levels of Hh target genes and cell growth markers (Gli1, Gli2, Ptch1, Pcna, cyclin D2)",[1],reduced mRNA levels
same,luciferase activity driven by Jun/AP1 signaling,AP1/Jun pathway,without affecting luciferase activity; also recorded: inactive
same,ASZ001 BCC cell growth in vitro,ASZ001 BCC cells,significant efficacy to impair ASZ001 BCC cell growth
same,Gli1 mRNA levels in primary MB cells,Gli1 mRNA [2],decrease of Gli1 mRNA levels
same,expression of endogenous Hh target genes in SuFu^−/− MEFs,[3],suppressed the expression of endogenous Hh target genes
same,"Hh pathway activity in MB stem-like cells (Gli1, Gli2, Ptch1, Nanog, Oct4, cyclins D1 and D2, Pcna mRNAs)",[4],reduced Hh pathway activity
same,Gli1 mRNA levels in ASZ001 BCC cells,Gli1 mRNA [5],decrease of Gli1 mRNA levels

# From publication PMC5059851, “Inhibition of Hedgehog-dependent tumors and cancer stem cells by a newly identified naturally occurring chemotype” (Cell Death & Disease, 2016)
